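Test compounds were applied to cells in 96-well plates for 48 hours at 5 doses. GI50 is the concentration that inhibits growth by half.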 Activity calls are given as the source filed them. No stated cut-off is given here; in the data, active = GI50 up to about 1.1 µM and inactive = higher.
Tests used:
Test in all cases: DTP human tumour cell line panel, 48 h
OVCAR-3 = system: OVCAR-3
SF-268 = system: SF-268
HCT-116 = system: HCT-116
SF-539 = system: SF-539
SK-MEL-28 = system: SK-MEL-28
MDA-MB-231 = system: MDA-MB-231
MCF7 = system: MCF7
SNB-75 = system: SNB-75
NCI-H460 = system: NCI-H460
SF-295 = system: SF-295
Hs-578T = system: Hs-578T
KM12 = system: KM12
SK-MEL-2 = system: SK-MEL-2
RXF 393 = system: RXF 393
NCI-H23 = system: NCI-H23
U-251 = system: U-251
HCC 2998 = system: HCC 2998
SN12C = system: SN12C
CAKI-1 = system: CAKI-1
HT-29 = system: HT-29

Row | Structure (SMILES) | GI50 (OVCAR-3) | GI50 (SF-268) | GI50 (HCT-116) | GI50 (SF-539) | GI50 (SK-MEL-28) | GI50 (MDA-MB-231) | GI50 (MCF7) | GI50 (SNB-75) | GI50 (NCI-H460) | GI50 (SF-295) | GI50 (Hs-578T) | GI50 (KM12) | GI50 (SK-MEL-2) | GI50 (RXF 393) | GI50 (NCI-H23) | GI50 (U-251) | GI50 (HCC 2998) | GI50 (SN12C) | GI50 (CAKI-1) | GI50 (HT-29)
1 | Cc1ccc2c(c1C)C(=O)C1(C2)Cc2ccc3c(c2C1=O)CCC3 (stereo not given) | > 100 µM (inactive) | > 100 µM (inactive) | > 100 µM (inactive) | 29.9 µM (inactive) | > 100 µM (inactive) | > 100 µM (inactive) | > 100 µM (inactive) | > 100 µM (inactive) | > 100 µM (inactive) | > 100 µM (inactive) | > 100 µM (inactive) | > 100 µM (inactive) | > 100 µM (inactive) | 41.8 µM (inactive) | > 100 µM (inactive) | > 100 µM (inactive) | > 100 µM (inactive) | > 100 µM (inactive) | > 100 µM (inactive) | > 100 µM (inactive)
2 | CC1(C)CC(=O)C2=C(C1)OC1(CC2c2ccc(Cl)cc2)CC(c2ccc(Cl)cc2)C2=C(CC(C)(C)CC2=O)O1 (stereo not given) | 3.44 µM (inactive) | 17.9 µM (inactive) | 12.2 µM (inactive) | 20.5 µM (inactive) | 15.2 µM (inactive) | 24.4 µM (inactive) | 12 µM (inactive) | 17.5 µM (inactive) | 14.3 µM (inactive) | 22.2 µM (inactive) | 16.5 µM (inactive) | 16.7 µM (inactive) | 18.8 µM (inactive) | 26.1 µM (inactive) | 16.3 µM (inactive) | 22.5 µM (inactive) | 16.3 µM (inactive) | 36.7 µM (inactive) | 26.9 µM (inactive) | 28.2 µM (inactive)
3 | Cc1ccccc1OC(C)C(=O)NN1C(=O)CC(=O)NC1=S (stereo not given) | > 100 µM (inactive) | > 100 µM (inactive) | > 100 µM (inactive) | > 100 µM (inactive) | > 100 µM (inactive) | > 100 µM (inactive) | 47.4 µM (inactive) | > 100 µM (inactive) | > 100 µM (inactive) | 86.7 µM (inactive) | > 100 µM (inactive) | 92 µM (inactive) | > 100 µM (inactive) | > 100 µM (inactive) | > 100 µM (inactive) | > 100 µM (inactive) | > 100 µM (inactive) | > 100 µM (inactive) | > 100 µM (inactive) | > 100 µM (inactive)
4 | Fc1cc(C2=C[C@H](c3ccc(Cl)cc3)NC(=S)N2)c(Cl)cc1Cl | 33.1 µM (inactive) | 65.8 µM (inactive) | 35.8 µM (inactive) | > 100 µM (inactive) | > 100 µM (inactive) | 23.7 µM (inactive) | 31.2 µM (inactive) | 37.6 µM (inactive) | 34 µM (inactive) | 28.2 µM (inactive) | > 100 µM (inactive) | 49.4 µM (inactive) | 27.2 µM (inactive) | 31.1 µM (inactive) | 63.8 µM (inactive) | 29.6 µM (inactive) | 23.3 µM (inactive) | 29.3 µM (inactive) | 43 µM (inactive) | 36.5 µM (inactive)
5 | O=C(O)c1c2c(c(O)c3c1CN(C1CCCCC1)CO3)OCN(C1CCCCC1)C2 | 69 µM (inactive) | 46.3 µM (inactive) | 39.3 µM (inactive) | 37 µM (inactive) | > 100 µM (inactive) | 46.7 µM (inactive) | 20.1 µM (inactive) | > 100 µM (inactive) | 19 µM (inactive) | 92.7 µM (inactive) | > 100 µM (inactive) | > 100 µM (inactive) | > 100 µM (inactive) | 63.4 µM (inactive) | > 100 µM (inactive) | 42.6 µM (inactive) | 21.6 µM (inactive) | 27.2 µM (inactive) | > 100 µM (inactive) | > 100 µM (inactive)
6 | O=C(Nc1cccc(-c2cn3ccccc3n2)c1)c1ccncc1 | 35.1 µM (inactive) | 41.4 µM (inactive) | 33.1 µM (inactive) | 50.6 µM (inactive) | 48.5 µM (inactive) | 32 µM (inactive) | 31.6 µM (inactive) | 46.1 µM (inactive) | 16.1 µM (inactive) | 40.7 µM (inactive) | 38.1 µM (inactive) | 32.6 µM (inactive) | 22.6 µM (inactive) | 64.4 µM (inactive) | 23.6 µM (inactive) | 48.2 µM (inactive) | 56.2 µM (inactive) | 32.7 µM (inactive) | 31.3 µM (inactive) | 35.8 µM (inactive)
7 | Nc1nccc(NCC2(CO)CC(OCc3ccccc3)C2)n1 (stereo not given) | 87.5 µM (inactive) | > 10 µM (inactive) | 90.4 µM (inactive) | > 100 µM (inactive) | > 100 µM (inactive) | > 100 µM (inactive) | > 100 µM (inactive) | > 100 µM (inactive) | > 100 µM (inactive) | > 100 µM (inactive) | > 100 µM (inactive) | > 100 µM (inactive) | > 100 µM (inactive) | > 100 µM (inactive) | > 100 µM (inactive) | > 100 µM (inactive) | > 100 µM (inactive) | > 100 µM (inactive) | > 100 µM (inactive) | > 100 µM (inactive)
8 | CCOc1ccc(/C=C2\N=C(c3ccc([N+](=O)[O-])cc3)OC2=O)cc1 | > 100 µM (inactive) | > 100 µM (inactive) | > 100 µM (inactive) | > 100 µM (inactive) | > 100 µM (inactive) | > 100 µM (inactive) | > 100 µM (inactive) | > 100 µM (inactive) | > 100 µM (inactive) | > 100 µM (inactive) | > 100 µM (inactive) | > 100 µM (inactive) | > 100 µM (inactive) | > 100 µM (inactive) | > 100 µM (inactive) | > 100 µM (inactive) | > 100 µM (inactive) | > 100 µM (inactive) | > 100 µM (inactive) | > 100 µM (inactive)
9 | Cc1cccc2[nH]c3c(c(O)cc4[nH]c5cccc(C)c5c(=O)c43)c(=O)c12 | 6 µM (inactive) | > 10 µM (inactive) | 3.65 µM (inactive) | > 10 µM (inactive) | > 10 µM (inactive) | 8.11 µM (inactive) | > 10 µM (inactive) | > 10 µM (inactive) | 5.57 µM (inactive) | 7.53 µM (inactive) | 7.19 µM (inactive) | 6.87 µM (inactive) | > 10 µM (inactive) | 7 µM (inactive) | 3 µM (inactive) | 3.3 µM (inactive) | > 10 µM (inactive) | 4.97 µM (inactive) | > 10 µM (inactive) | 3.85 µM (inactive)
10 | C/C(=N\NC(=[Se])N1CCN(c2ccccn2)CC1)c1ccccn1 | 0.01 µM (active) | 3.21 µM (inactive) | 0.01 µM (active) | 2.51 µM (inactive) | 10 µM (inactive) | 0.01 µM (active) | 0.01 µM (active) | 4.7 µM (inactive) | 0.0269 µM (active) | 2.42 µM (inactive) | 0.188 µM (active) | 0.598 µM (active) | 0.238 µM (active) | 0.0352 µM (active) | 3.06 µM (inactive) | 0.00925 µM (active) | 11.1 µM (inactive) | 0.222 µM (active) | 2.65 µM (inactive) | 0.01 µM (active)
11 | CCCCCCc1cc2cc(C(=O)Nc3cccc(C(F)(F)F)c3)c(=N)oc2cc1O | 2.07 µM (inactive) | 0.944 µM (active) | 1.55 µM (inactive) | 1.73 µM (inactive) | 2.57 µM (inactive) | 2.31 µM (inactive) | 1.62 µM (inactive) | 0.646 µM (active) | 0.436 µM (active) | 2.9 µM (inactive) | 0.998 µM (active) | 2.84 µM (inactive) | 2.17 µM (inactive) | 0.49 µM (active) | 0.185 µM (active) | 1.33 µM (inactive) | 2.74 µM (inactive) | 1.33 µM (inactive) | 2.32 µM (inactive) | 5.96 µM (inactive)
12 | CCCCCCCCCCCCCC(=O)OC(/C=C/C(C)C)C(O)C(O)C(OC)C(=O)NC1CCCCN(C)C1=O (stereo not given) | 5.12 µM (inactive) | 5.27 µM (inactive) | 0.927 µM (active) | 3.62 µM (inactive) | 3.61 µM (inactive) | 1.86 µM (inactive) | 1.93 µM (inactive) | 7.94 µM (inactive) | 0.687 µM (active) | 3.95 µM (inactive) | > 10 µM (inactive) | 7.71 µM (inactive) | 4.2 µM (inactive) | 1.45 µM (inactive) | 9.91 µM (inactive) | 6.5 µM (inactive) | 7.96 µM (inactive) | 3.23 µM (inactive) | 1.19 µM (inactive) | 6.3 µM (inactive)
13 | Brc1ccc2c(-c3csc(-c4c[nH]c5ccc(Br)cc45)n3)c[nH]c2c1 | 6 µM (inactive) | 3.6 µM (inactive) | 3.64 µM (inactive) | 3.87 µM (inactive) | 7.59 µM (inactive) | 3.42 µM (inactive) | 3.82 µM (inactive) | 10.2 µM (inactive) | 2.44 µM (inactive) | 3.19 µM (inactive) | 5.78 µM (inactive) | 2.42 µM (inactive) | 5.35 µM (inactive) | 3.02 µM (inactive) | 2.87 µM (inactive) | 4.26 µM (inactive) | 2.32 µM (inactive) | 5.92 µM (inactive) | 3.01 µM (inactive) | 1.76 µM (inactive)
14 | CCOC(=O)C1(C(=O)OCC)OC(C)=NC1(C(=O)OC)C(=O)OC | > 75.3 µM (inactive) | > 100 µM (inactive) | > 100 µM (inactive) | > 100 µM (inactive) | > 100 µM (inactive) | > 100 µM (inactive) | > 61.5 µM (inactive) | > 32.5 µM (inactive) | > 100 µM (inactive) | > 100 µM (inactive) | > 100 µM (inactive) | > 100 µM (inactive) | > 100 µM (inactive) | > 100 µM (inactive) | > 100 µM (inactive) | > 100 µM (inactive) | > 100 µM (inactive) | > 100 µM (inactive) | > 100 µM (inactive) | > 100 µM (inactive)
